Test results as given in patent US20240425568A1, “COMBINATION THERAPIES FOR HIV INFECTIONS AND USES THEREOF” (VIIV HEALTHCARE COMPANY, priority 2021, published 2024).
Like-named read-outs stand apart in the source and are kept apart here.

Legend:
[1] = test system: HIV infected CD4+ T cells; assay: ADCC assay: NK-directed killing of HIV infected CD4+ T cells; assay type: cell-based, human (infected with HIV-1 lab strain IIIB); conditions: for NK-directed killing of HIV infected cells mediated by CD4 binding site bnAbs (ADCC): temsavir 50 nM-0.08 nM for 16-24 hours, antibodies 5 ug/mL, Raltegravir in medium
Procedure: Isolation and preparation of target and effector cells: Peripheral blood mononuclear cells (PBMCs) were obtained by continuous-flow leukapheresis from healthy donors, isolated by ficoll-hypaque density gradient centrifugation and cryopreserved in the vapor phase of liquid nitrogen. PBMCs were rapidly thawed to room temperature in a 37° C. water bath and resuspended in RPMI 1640 media supplemented with 10% fetal calf serum. For the target cells, CD4+T lymphocytes were purified using immunomagnetic negative selection beads as per the manufacturer's instructions (StemCell Technologies). The cells were activated with phytohemagglutinin-P (Sigma; PHA-P; 5 μg/mL) for 72 hours at 37° C., 5% CO2 and then maintained under the same incubation conditions in RPMI 1640 medium supplemented with 10% fetal calf serum plus 50 U/mL recombinant IL-2. Natural Killer (NK) effector cells were purified from autologous PBMCs using immunomagnetic negative selection beads as per the manufacturer's instructions (StemCell Technologies). The cells were maintained in RPMI 1640 medium supplemented with 10% fetal calf serum and incubated at 37° C., 5% CO2 for 24 hr prior to ADCC assay.
Infection of target cells: HIV-1 lab strain IIIB was used to infect the activated CD4+T lymphocytes by spin infection at 1200×g for 1.5 hours in 24-well plates at 25° C. in the presence of 25 μg/mL DEAE-Dextran. The infected cells were collected, washed and resuspended in RPMI 1640 medium supplemented with 10% fetal calf serum plus 50 U/mL recombinant IL-2 and incubated at 37° C., 5% CO2 for 3 days until infection rates reached above 20%.
ADCC assay: HIV infected CD4^+ T cells (targets) were incubated with cell proliferation dye as per the manufacturer's instructions (eFluor670; eBioscience) and plated in 96-well U-bottom plates. Temsavir was dissolved in DMSO and diluted into RPMI 1640 medium supplemented with 10% fetal calf and serially titrated in the same medium in 5-fold increments for a dose range of 50 nM-0.08 nM. […]
The cells were then stained intracellularly for HIV-1 p24, using the Cytofix/Cytoperm Fixation/Permeabilization Kit (BD Biosciences) with subsequent addition of anti-p24 mAb (FITC anti-p24, clone KC57; Beckman Coulter/Immunotech; 1:200 final concentration) for 20-30 minutes at room temperature. […] The percentage of specific killing was calculated with the following formula: (% of p24^+ cells in Targets plus Effectors)−(% of p24^+ cells in Targets plus Effectors plus Abs)/(% of p24^+ cells in Targets alone without antibody or temsavir) by gating on live target cells.

[2] = target: T1, cell surface expressed HIV-1 envelope (Human immunodeficiency virus type 1 group M subtype B, UniProt P04578); assay type: cell-based, HIV-1 lab strain HxB2; conditions: for overall percentage of cells that contained bound bnAbs: 0.5 uM temsavir compared to DMSO only treated cells, FIG. 2; for binding of bnAb to the cell surface of CD4+/p24+ cells (mean fluorescent intensity, MFI): HIV infected cells treated with 0.5 uM temsavir for 24 hr, compared to DMSO only treated cells, bnAb 50 ug/mL to 0.01 ug/mL, FIG. 1
T1 construct: cell surface expressed HIV-1 envelope from a productive infection of human CD4^+ T cells; endogenous in cells; host or cells: primary human CD4+ T cells (from healthy-donor PBMCs) productively infected with HIV-1 HxB2 virus
Procedure: Preparation and HIV-1 infection of target cells: Peripheral blood mononuclear cells (PBMCs) were obtained by continuous-flow leukapheresis from healthy donors, isolated by ficoll-hypaque density gradient centrifugation and cryopreserved in the vapor phase of liquid nitrogen. PBMCs were rapidly thawed to room temperature in a 37° C. water bath and cultured in assay medium (RPMI 1640 media supplemented with 10% fetal calf serum plus 30 U/mL recombinant IL-2) containing 2 ug/mL phytohemagglutinin-P (Sigma) for three days in a humidified incubator at 37° C., 5% CO2. CD4^+ T cells were isolated by negative selection (Stemcell Technologies), washed twice and resuspended with assay medium at a final density of 1-2×10^6 cells/mL and incubated at 37° C., 5% CO2 overnight. Cells were centrifuged at 500×g for 10 minutes, resuspended with assay medium at 5×10^6 cell/mL and 200 uL (1×10^6 total cells) were distributed to 24-well tissue culture treated plates. An HIV-1 lab strain, HxB2 virus, previously propagated in human PBMC cells, was diluted with assay medium containing 50 ug/mL DEAE-dextran and 200 uL was added to the cells in the 24-well plates. The plates were centrifuged at 1,200×g for 1.5 hours and the infected cells were collected and pooled in a 50 ml conical tube. The infected cells were washed twice and resuspended in assay medium to a final density of 1-2×10^6 cells/mL and incubated at 37° C., 5% CO2 for three days.
Treatment of HIV-infected target cells with temsavir and N6 bnAbs: HIV infected cells were centrifuged at 500×g for 10 minutes, resuspended with assay medium at 3×10^6 cell/mL and 50 uL (150,000 total cells) were distributed to 96-well, U-bottom tissue-culture treated plates. […] The antibodies were eluted and diluted in buffer consisting of 150 mM Arginine, 50 mM Sodium acetate, pH 5.5, 150 mM NaCl) were serially titrated in assay medium and added to the temsavir-treated cells for a final concentration range of 50 ug/mL to 0.01 ug/mL. The plates were incubated at 37° C., 5% CO2 for 30 minutes.
Flow cytometry: The assay plates were removed from the incubator and the cells were pelleted by centrifugation at 500×g for 2 minutes at 25° C. The cells were washed twice by mixing with 200 μL of ice cold wash buffer (phosphate buffered saline containing 2% fetal calf serum) with centrifugation at 500×g for 2 minutes at 25° C. for each wash cycle. […] The stained cells were washed twice with wash buffer as indicated above, acquired on a Fortessa cytometer (BD Biosciences) and the data were analyzed by mean fluorescent intensity (MFI) using FlowJo v10.8 software (Tree Star).

Molecule | cell death of HIV infected primary cells in the absence of effector cells ([1]; effector cells eliminated from the assay, FIG. 4) | NK-directed killing of HIV infected cells mediated by CD4 binding site bnAbs (ADCC) ([1]; NK effector-to-target ratio 3:1, 24 hours, FIG. 3) | NK-directed killing of HIV infected cells mediated by CD4 binding site bnAbs (ADCC) ([1]; NK effector-to-target ratio 3:1, 24 hours, FIG. 3, listed as Temsavir) | overall percentage of cells that contained bound bnAbs [2] | overall percentage of cells that contained bound bnAbs ([2]; listed as Temsavir) | binding of bnAb to the cell surface of CD4+/p24+ cells (mean fluorescent intensity, MFI) [2] | magnitude of killing (maximum), percentage of specific killing ([1]; with temsavir titration 50 nM-0.08 nM, antibody 5 ug/mL, NK effector-to-target ratio 3:1, 24 hours, FIG. 3) [%]
COc1cnc(-n2cnc(C)n2)c2[nH]cc(C(=O)C(=O)N3CCN(C(=O)c4ccccc4)CC3)c12 [temsavir, 1-(4-benzoylpiperazin-1-yl)-2-[4-methoxy-7-(3-methyl-1,2,4-triazol-1-yl)-1H-pyrrolo[2,3-c]pyridin-3-yl]ethane-1,2-dione] | does not lead to cell death | Dose dependent temsavir enhancement | enhances | significant increase | enhancement | enhancement | 
N6-LAGA: Fc binding-reduced N6 antibody, constant domain comprising L235A and G237A mutations; HC SEQ ID NO: 13 |  |  |  |  |  | substantial increase | 25
